The NIST ThermoML archive (doi:10.1016/j.fluid.2019.06.001)
Numbers after ± are expanded uncertainties.

Settings: Fluid (supercritical or subcritical phases), Brillouin light scattering technique

With `CCCCCC` [hexane] the speed of sound (509.17 K, 3500 kPa) was 162.1 ± 9.4 m/s, the speed of sound (509.4 K, 4500 kPa) was 243.8 ± 14 m/s and the speed of sound (509.44 K, 6500 kPa) was 331.1 ± 21 m/s. The speed of sound (509.57 K, 5500 kPa) was 291.1 ± 18 m/s, the speed of sound (509.67 K, 7500 kPa) was 361.3 ± 25 m/s and the speed of sound (511.22 K, 5500 kPa) was 286.1 ± 17 m/s. It also gave a speed of sound (511.26 K, 4500 kPa) of 232.7 ± 13 m/s, a speed of sound (511.27 K, 6500 kPa) of 324.2 ± 21 m/s and a speed of sound (511.34 K, 7500 kPa) of 355.3 ± 24 m/s. It also gave a speed of sound (511.69 K, 3500 kPa) of 138.7 ± 8.8 m/s, a speed of sound (514.25 K, 7500 kPa) of 347.2 ± 23 m/s and a speed of sound (514.43 K, 6500 kPa) of 314.1 ± 20 m/s. The speed of sound (514.46 K, 3500 kPa) was 112.5 ± 8.6 m/s, the speed of sound (514.5 K, 4500 kPa) was 216.4 ± 12 m/s and the speed of sound (514.6 K, 5500 kPa) was 272 ± 16 m/s. For the same compound, the speed of sound (517.46 K, 7500 kPa) was 336.8 ± 22 m/s, the speed of sound (517.47 K, 4500 kPa) was 201.9 ± 11 m/s and the speed of sound (517.58 K, 6500 kPa) was 303.6 ± 18 m/s. The speed of sound (517.72 K, 3500 kPa) was 95.8 ± 8.2 m/s, the speed of sound (517.82 K, 5500 kPa) was 260.2 ± 15 m/s and the speed of sound (519.87 K, 3500 kPa) was 100.4 ± 7.2 m/s. The speed of sound (520.19 K, 7500 kPa) was 328.5 ± 21 m/s, the speed of sound (520.36 K, 4500 kPa) was 183.7 ± 10 m/s and the speed of sound (520.46 K, 6500 kPa) was 289 ± 17 m/s. It also gave a speed of sound (520.54 K, 5500 kPa) of 245.2 ± 14 m/s, a speed of sound (523.4 K, 4500 kPa) of 168.4 ± 8.9 m/s and a speed of sound (523.63 K, 6500 kPa) of 278.2 ± 16 m/s. For the same compound, the speed of sound (523.79 K, 3500 kPa) was 112.7 ± 6.2 m/s, the speed of sound (523.89 K, 5500 kPa) was 229.4 ± 13 m/s and the speed of sound (523.93 K, 7500 kPa) was 316.5 ± 20 m/s. It also gave a speed of sound (527.66 K, 4500 kPa) of 155 ± 7.6 m/s, a speed of sound (527.85 K, 3500 kPa) of 120.4 ± 5.5 m/s and a speed of sound (528.22 K, 5500 kPa) of 210.9 ± 11 m/s. For the same compound, the speed of sound (528.42 K, 7500 kPa) was 304.2 ± 18 m/s, the speed of sound (528.58 K, 6500 kPa) was 263.2 ± 15 m/s and the speed of sound (533.3 K, 4500 kPa) was 131.7 ± 6 m/s. The speed of sound (533.43 K, 7500 kPa) was 285.3 ± 17 m/s, the speed of sound (533.48 K, 6500 kPa) was 248.1 ± 14 m/s and the speed of sound (533.62 K, 5500 kPa) was 194.1 ± 10 m/s. For the same compound, the speed of sound (533.83 K, 3500 kPa) was 134.2 ± 5.7 m/s, the speed of sound (538.14 K, 4500 kPa) was 125 ± 5.5 m/s and the speed of sound (538.33 K, 5500 kPa) was 174.8 ± 9 m/s. For the same compound, the speed of sound (538.58 K, 6500 kPa) was 231.5 ± 13 m/s, the speed of sound (538.81 K, 7500 kPa) was 270.8 ± 16 m/s and the speed of sound (538.84 K, 3500 kPa) was 140.1 ± 6.1 m/s. It also gave a speed of sound (543 K, 4500 kPa) of 125.6 ± 5.4 m/s, a speed of sound (543.14 K, 6500 kPa) of 219.9 ± 12 m/s and a speed of sound (543.21 K, 5500 kPa) of 165.4 ± 8.1 m/s. For the same compound, the speed of sound (543.52 K, 7500 kPa) was 259.9 ± 15 m/s, the speed of sound (543.69 K, 3500 kPa) was 145.3 ± 6.3 m/s and the speed of sound (547.89 K, 5500 kPa) was 158.2 ± 7.6 m/s. The speed of sound (547.96 K, 4500 kPa) was 130.2 ± 5.6 m/s, the speed of sound (548.14 K, 6500 kPa) was 207.4 ± 11 m/s and the speed of sound (548.31 K, 3500 kPa) was 149.2 ± 6.8 m/s. The speed of sound (548.56 K, 7500 kPa) was 248.3 ± 14 m/s, the speed of sound (553.1 K, 3500 kPa) was 155.1 ± 7.1 m/s and the speed of sound (553.44 K, 7500 kPa) was 235.1 ± 13 m/s. The speed of sound (553.55 K, 6500 kPa) was 194.1 ± 9.8 m/s, the speed of sound (553.6 K, 4500 kPa) was 134.9 ± 5.8 m/s and the speed of sound (554.09 K, 5500 kPa) was 150.9 ± 7 m/s. The speed of sound (558.44 K, 3500 kPa) was 161.5 ± 7.3 m/s, the speed of sound (558.48 K, 4500 kPa) was 139.2 ± 6 m/s and the speed of sound (558.9 K, 5500 kPa) was 144.8 ± 6.4 m/s. For the same compound, the speed of sound (559.79 K, 6500 kPa) was 180.9 ± 8.9 m/s, the speed of sound (560.33 K, 7500 kPa) was 222.2 ± 12 m/s and the speed of sound (562.44 K, 4500 kPa) was 142.8 ± 6.1 m/s. The speed of sound (562.56 K, 3500 kPa) was 164.9 ± 7.5 m/s, the speed of sound (563.13 K, 5500 kPa) was 143.4 ± 6.2 m/s and the speed of sound (563.76 K, 6500 kPa) was 171.7 ± 8.4 m/s. For the same compound, the speed of sound (563.92 K, 7500 kPa) was 215.1 ± 11 m/s, the speed of sound (567.95 K, 4500 kPa) was 150.6 ± 6.8 m/s and the speed of sound (568.21 K, 3500 kPa) was 168.8 ± 7.9 m/s. For the same compound, the speed of sound (568.4 K, 5500 kPa) was 146.5 ± 6.6 m/s, the speed of sound (568.54 K, 7500 kPa) was 205.6 ± 11 m/s and the speed of sound (568.59 K, 6500 kPa) was 169 ± 8.1 m/s. It also gave a speed of sound (573.12 K, 7500 kPa) of 201.1 ± 10 m/s, a speed of sound (573.18 K, 5500 kPa) of 150 ± 6.7 m/s and a speed of sound (573.36 K, 4500 kPa) of 155.7 ± 7 m/s. It also gave a speed of sound (573.51 K, 6500 kPa) of 165.9 ± 7.6 m/s, a speed of sound (574.58 K, 3500 kPa) of 174.8 ± 8.2 m/s and a speed of sound (578.08 K, 4500 kPa) of 161.3 ± 7.2 m/s. For the same compound, the speed of sound (578.22 K, 5500 kPa) was 154 ± 6.9 m/s, the speed of sound (578.65 K, 6500 kPa) was 167.9 ± 7.9 m/s and the speed of sound (578.77 K, 3500 kPa) was 177.5 ± 8.3 m/s. The speed of sound (579.07 K, 7500 kPa) was 191.7 ± 9.4 m/s, the speed of sound (582.79 K, 5500 kPa) was 157.3 ± 7 m/s and the speed of sound (582.93 K, 4500 kPa) was 164.7 ± 7.4 m/s. It also gave a speed of sound (583.09 K, 6500 kPa) of 165.5 ± 7.4 m/s, a speed of sound (583.3 K, 7500 kPa) of 190.5 ± 9.4 m/s and a speed of sound (584.09 K, 3500 kPa) of 183 ± 8.6 m/s. It also gave a speed of sound (587.91 K, 4500 kPa) of 170.5 ± 8 m/s, a speed of sound (588.07 K, 5500 kPa) of 160.4 ± 7.1 m/s and a speed of sound (588.45 K, 6500 kPa) of 166.4 ± 7.5 m/s. For the same compound, the speed of sound (588.59 K, 3500 kPa) was 186.5 ± 8.7 m/s, the speed of sound (589.01 K, 7500 kPa) was 188.8 ± 9.3 m/s and the speed of sound (592.61 K, 5500 kPa) was 164.2 ± 7.3 m/s. The speed of sound (592.78 K, 6500 kPa) was 168.5 ± 7.9 m/s, the speed of sound (593.04 K, 4500 kPa) was 174.8 ± 8.1 m/s and the speed of sound (593.24 K, 7500 kPa) was 187.8 ± 9.2 m/s. The speed of sound (594.05 K, 3500 kPa) was 188.6 ± 9.2 m/s, the speed of sound (597.84 K, 4500 kPa) was 178.5 ± 8.3 m/s and the speed of sound (597.98 K, 5500 kPa) was 169.1 ± 7.9 m/s. It also gave a speed of sound (598.14 K, 6500 kPa) of 168.6 ± 7.8 m/s, a speed of sound (598.52 K, 7500 kPa) of 186.2 ± 8.7 m/s and a speed of sound (598.83 K, 3500 kPa) of 192.2 ± 9.3 m/s. The speed of sound (602.73 K, 4500 kPa) was 181.2 ± 8.4 m/s, the speed of sound (602.85 K, 5500 kPa) was 172 ± 8 m/s and the speed of sound (603.05 K, 6500 kPa) was 173.4 ± 8.1 m/s. It also gave a speed of sound (603.41 K, 3500 kPa) of 195.9 ± 9.5 m/s, a speed of sound (603.44 K, 7500 kPa) of 186 ± 8.7 m/s and a speed of sound (608.03 K, 4500 kPa) of 183.5 ± 8.5 m/s. It also gave a speed of sound (608.05 K, 5500 kPa) of 178 ± 8.3 m/s, a speed of sound (608.12 K, 6500 kPa) of 175.1 ± 8.1 m/s and a speed of sound (608.49 K, 7500 kPa) of 185.6 ± 8.6 m/s. For the same compound, the speed of sound (608.96 K, 3500 kPa) was 198.5 ± 9.6 m/s, the speed of sound (612.5 K, 5500 kPa) was 180.2 ± 8.4 m/s and the speed of sound (612.69 K, 6500 kPa) was 179.7 ± 8.3 m/s. For the same compound, the speed of sound (612.7 K, 4500 kPa) was 187 ± 9.1 m/s, the speed of sound (613.43 K, 7500 kPa) was 187.8 ± 9.1 m/s and the speed of sound (614.5 K, 3500 kPa) was 203.1 ± 9.9 m/s. It also gave a speed of sound (617.91 K, 4500 kPa) of 193.6 ± 9.4 m/s, a speed of sound (618.05 K, 5500 kPa) of 184.3 ± 8.5 m/s and a speed of sound (618.21 K, 6500 kPa) of 182 ± 8.4 m/s. It also gave a speed of sound (618.56 K, 7500 kPa) of 190.1 ± 9.2 m/s, a speed of sound (618.79 K, 3500 kPa) of 204.3 ± 9.9 m/s and a speed of sound (622.49 K, 6500 kPa) of 184.8 ± 8.6 m/s. For the same compound, the speed of sound (622.59 K, 7500 kPa) was 191 ± 9.2 m/s, the speed of sound (622.8 K, 5500 kPa) was 186.5 ± 8.6 m/s and the speed of sound (623.06 K, 4500 kPa) was 195.6 ± 9.5 m/s. For the same compound, the speed of sound (624.52 K, 3500 kPa) was 206.1 ± 10 m/s, the speed of sound (628.11 K, 5500 kPa) was 190.4 ± 9.2 m/s and the speed of sound (628.12 K, 7500 kPa) was 194.6 ± 9.4 m/s. For the same compound, the speed of sound (628.15 K, 4500 kPa) was 198.3 ± 9.6 m/s, the speed of sound (628.16 K, 6500 kPa) was 189 ± 9.1 m/s and the speed of sound (629.29 K, 3500 kPa) was 209.3 ± 10 m/s. It also gave a speed of sound (632.52 K, 4500 kPa) of 202.1 ± 9.8 m/s, a speed of sound (632.99 K, 6500 kPa) of 192.3 ± 9.3 m/s and a speed of sound (633.06 K, 7500 kPa) of 196.8 ± 9.5 m/s. It also gave a speed of sound (633.07 K, 5500 kPa) of 193.6 ± 9.4 m/s, a speed of sound (633.86 K, 3500 kPa) of 210.4 ± 11 m/s and a speed of sound (635.27 K, 7500 kPa) of 198 ± 9.6 m/s. It also gave a speed of sound (635.5 K, 6500 kPa) of 194.3 ± 9.4 m/s, a speed of sound (636.04 K, 5500 kPa) of 195 ± 9.4 m/s and a speed of sound (636.79 K, 4500 kPa) of 204.9 ± 9.9 m/s. The speed of sound (637.99 K, 3500 kPa) was 211.6 ± 11 m/s.
